Source: US6248895A, “Benzofuroxan compound, method of preparation, pharmaceutical composition and method of treatment using the same” (Torrent Pharmaceuticals Ltd., priority 1998, dated 2001)

Columns and labels:
[1] = tested on: thoracic aorta (albino rabbit, helical strips, endothelium removed); assay: In vitro screening of NO donors: relaxation of endothelium-denuded rabbit thoracic aorta strips, before and after GTN-induced tolerance; assay type: cell-based; settings: relative to GTN; for Mean Relative Potency After Tolerance: after tolerance induced by 440 μM GTN for 90 min
Protocol: a) In vitro Screening of NO Donors
The method adopted was a modified method of Nishikawa et al (1982). Albino rabbits of either sex were stunned and exsanguinated. Thoracic aorta was quickly removed and cut helically (at an angle of […]) into strips 4-5 mm wide and 25 to 30 mm long, after removal of adventitial connective tissue. The endothelium was rubbed off gently using a cotton swab soaked in Kreb's solution. Two strips were fixed vertically in organ baths containing 20 ml. Kreb's solution maintained at 37° C. and bubbled with oxygen. A resting tension of 4 g was applied and the preparation was allowed to equilibrate for 30 min. Each preparation was exposed to two primer doses of KCl (30 mM). After the contraction reached a maximum, the bath was drained off and replaced with fresh Kreb's solution. Half an hour later, cumulative dose response curve for the test compound was taken on one tissue (test) and for glyceryl trinitrate (GTN) in the other (standard). The dose range used was from 10^-9 M to 10^-3 M with a contact period of 4 min. for each dose.
Tolerance was induced in both the tissues by adding 440 μM of GTN for 90 minutes. During this period the bath solution was changed every 30 min. and 440 μM of GTN was replaced. Later both the tissues were washed thoroughly and the dose response curve (DRC) for both the test and the standard were repeated. The percentage relaxation with individual doses was calculated by taking the maximum relaxations to 10^-4 M papaverine as 100% relaxation. A graph was plotted by taking the percentage relaxation vs the log (M) concentration of the compounds.

[2] = tested on: vasopressin induced T-wave elevation; assay: Anti-anginal effect: suppression of vasopressin induced T-wave elevation in anesthetized guinea pigs; assay type: in vivo, guinea pig; settings: for Selectivity Index A/B (C): ED20 for fall in B.P. (A) / ED50 for T-wave inhibition (B); for Dose required for 50% inhibition of T-wave (ED50) (B): i.v.
Excerpt: b) In vivo Pharmacological Screening
A modified method of Benedini et al (1995) was adopted for studying the anti-anginal effect of the chosen compounds. Guinea pigs of either sex, weighing approximately 400-600 g were used for this study. Animals were anesthetized with urethane (1.25 g/kg, i.p.) and jugular vein was cannulated for intravenous administration of drugs/vehicle. Mean arterial blood pressure (MABP) was monitored by a cannula inserted into the right carotid artery and connected to a pressure transducer. Standard limb lead II electrocardiogram was recorded continuously. All the recordings were carried out on a MacLab system (AD Instruments, UK).
The ability of the test compounds to suppress the vasopressin induced T-wave elevation was used as the model for studying the anti-anginal effects of the compounds. Guinea pigs were divided into two groups for the purpose of this study, i) control group (pretreated with the vehicle for the compound) and ii) drug treated group.
In this group of animals the solvent used for dissolving the test compound was administered intravenously in a volume of 1 ml/kg. The basal T-wave heights, heart rates and MABP and changes after vehicle administration were noted. Thirty seconds later 1 I.U./ml/kg of vasopressin was administered intravenously. The T-wave heights, heart rates and MABP and their changes after vasopressin administration were also noted. The T-wave elevation (after vasopressin administration), maximum rise in MABP, and changes in heart rate were calculated from the above data and expressed as mean±standard deviation.
The effects of the test compound in suppressing the T-wave elevation caused by vasopressin were evaluated with atleast three dose levels. Groups of 6 guinea pigs were used for each dose. The test compound was injected 30 seconds prior to vasopressin administration. Changes in MABP, heart rate and T-waves were recorded as described for the control group. The percentage inhibition of vasopressin induced T-wave elevation was calculated for each dose taking the T-wave height estimated in control group as 100%. From the dose vs percent inhibition relationship, the dose required for 50% inhibition (ED50) for the T-wave elevation was estimated.
In a separate group of animals the drop in MABP after administration of the test compound (dose range of 0.1-1000 μg/kg, i.v.) was studied. Atleast three animals were used for each dose. Care was taken so that the doses were given only after the MABP had stabilized from the effects of the previous dose. All doses were injected in a final volume of 1 ml/kg. […] From this graph the dose required to produce a 20% fall in MABP (ED20) was calculated. The specificity of the test compound was defined by the selectivity index, which was shown below: [formula]

[3] = tested on: MABP; assay: Drop in mean arterial blood pressure (MABP) after i.v. administration; assay type: in vivo, guinea pig; settings: 20% fall in MABP
Protocol: Guinea pigs of either sex, weighing approximately 400-600 g were used for this study. […] Standard limb lead II electrocardiogram was recorded continuously. All the recordings were carried out on a MacLab system (AD Instruments, UK).
Determination of the Ed20 Values for Drop in Mabp
Atleast three animals were used for each dose. […] All doses were injected in a final volume of 1 ml/kg. […] The specificity of the test compound was defined by the selectivity index, which was shown below: [formula]

[4] = conventional nitrates like GTN; cited from earlier work
[5] = 30 seconds prior to vasopressin 1 I.U./ml/kg

| Compound | Mean Relative Potency After Tolerance [1] | Mean Relative Potency Before Tolerance [1] | Selectivity Index A/B (C) [2] | selectivity index as compared to GTN (in words) [2] | Dose required for 50% inhibition of T-wave (ED50) (B) [2, 5] | Dose needed for 20% fall in B.P. (ED20) (A) [3] | ED50 ([2]; Cavia porcellus, iv, 30 seconds prior to vasopressin 1 I.U./ml/kg, read-out: Dose required for 50% inhibition of T-wave (ED50) (B)) | ED20 ([3]; Cavia porcellus, iv, read-out: Dose needed for 20% fall in B.P. (ED20) (A)) | side effects as a manifestation of hypotensive effect [4] |
| --- | --- | --- | --- | --- | --- | --- | --- | --- | --- |
| 5(6)-(2-nicotinamide ethyloxycarbonyl) benzofuroxan hydrochloride [Compound 1] | 8.4 | 0.2 | 0.517 | high selectivity index as compared to GTN | 886.42 µg/kg | 458.02 µg/kg | – | – | – |
| CC1(C)OCC(COC(=O)c2ccc3c(c2)no[n+]3[O-])O1 (racemic) [Compound 10, 5(6)-((±)-2,2-dimethyl-1,3-dioxolane-4-methyloxycarbonyl) benzofuroxan] | 10.13 | 0.39 | 0.58 | high selectivity index as compared to GTN | 492.00 µg/kg | 286.00 µg/kg | – | – | – |
| O=C(NCCOC(=O)c1ccc2c(c1)no[n+]2[O-])c1ccncc1 [Compound 2, 5(6)-(2-isonicotinamideethyloxycarbonyl)benzofuroxan] | 6.94 | 0.06 | – | – | – | – | – | – | – |
| O=C(OCCN1CCCC1=O)c1ccc2c(c1)no[n+]2[O-] [Compound 3, 5(6)-(2-pyrolidinone ethyloxycarbonyl) benzofuroxan] | 25 | 0.11 | 0.152 | – | 675.61 µg/kg | 139.52 µg/kg | – | – | – |
| CC(O)COC(=O)c1ccc2c(c1)no[n+]2[O-] (stereo not drawn) [Compound 4, 5(6)-(2-hydroxypropyloxycarbonyl) benzofuroxan] | 11.22 | 0.28 | – | – | – | – | – | – | – |
| O=C(OCCN1CCOCC1)c1ccc2c(c1)no[n+]2[O-] [Compound 5, 5(6)-(2-morpholinoethyloxycarbonyl)benzofuroxan] | 4.12 | 0.18 | – | – | – | – | – | – | – |
| COCCOC(=O)c1ccc2c(c1)no[n+]2[O-] [Compound 6, 5(6)-(2-methyloxyethyloxycarbonyl) benzofuroxan] | 17.02 | 0.97 | 0.67 | high selectivity index as compared to GTN | 337.90 µg/kg | 226.34 µg/kg | – | – | – |
| O=C(OCC(O)CO)c1ccc2c(c1)no[n+]2[O-] (stereo not drawn) [Compound 7, 5(6)-(2,3-dihydroxypropyloxycarbonyl) benzofuroxan] | 3.49 | 0.17 | – | – | – | – | – | – | – |
| CCOCCOC(=O)c1ccc2c(c1)no[n+]2[O-] [Compound 8, 5(6)-(2-ethoxyethyloxycarbonyl) benzofuroxan] | 11.9 | 0.2 | – | – | – | – | – | – | – |
| O=C(OCc1cccnc1)c1ccc2c(c1)no[n+]2[O-] [Compound 9, 5(6)-(3-pyridinemethoxycarbonyl) benzofuroxan] | 8.05 | 0.53 | 0.61 | high selectivity index as compared to GTN | 372.85 µg/kg | 227.16 µg/kg | – | – | – |
| O=C(OC1COC2C(O[N+](=O)[O-])COC12)c1ccc2c(c1)no[n+]2[O-] (stereo not drawn) [Compound 11, 5(6)-(isosorbide mononitrateoxy carbonyl) benzofuroxan] | 7 | 0.25 | – | – | – | – | – | – | – |
| O=[N+]([O-])OCC(CO[N+](=O)[O-])O[N+](=O)[O-] [GTN, glyceryl trinitrate, reference compound] | – | – | ~0.017 | – | – | – | 0.474 mg/kg | 8.22 µg/kg | tachycardia, retrosternal discomfort, palpitations, collapse, syncope and postural hypotension |
